Values of other authors, collected in paper PMC3433420 (PLoS ONE, 2012).
pKd: −log10 of the molar value. Like-named read-outs stand apart in the source and are kept apart here.

Biological target: SH2 and PTB domains
Details: ref Jones et al. 2006 / Kaushansky et al. Chem and Biol 2008, cited from earlier work
Text: Supplement pone.0044471.s022.xlsx, sheet "Most recent PM interactions" | column: Kd || Supplement pone.0044471.s022.xlsx, sheet "All original PM interactions" | column: Kd

Q: With “PGGDpYAAMGACPd [ErbB3 pY1276, N-terminally rhodamine-labeled 13-mer phosphopeptide]” as the substance, how does the pKd (Protein ABL1, original PM interactions) read?
A: Its pKd is 5.70.

Q: What about the pKd (Protein BCAR3, original PM interactions) of the same substance?
A: Its pKd is 5.70.

Q: And the pKd (Protein CRKL, original PM interactions)?
A: Its pKd is 6.36.

Q: What about the pKd (Protein PIK3R3-C, original PM interactions) of the same substance?
A: The pKd was 6.30.

Q: And the pKd (Protein PIK3R3-N, original PM interactions)?
A: The pKd was 6.30.

Q: And the pKd (Protein PTK6, original PM interactions)?
A: The pKd was 6.36.

Q: What about the pKd (Protein SH2B2, original PM interactions) of the same substance?
A: The pKd was 5.70.

Q: What about the pKd (Protein SHC1, original PM interactions) of the same substance?
A: The pKd was 6.22.

Q: What about the pKd (Protein SLA2, original PM interactions) of the same substance?
A: Its pKd is 5.70.

Q: And the pKd (Protein SLA, original PM interactions)?
A: Its pKd is 5.70.

Q: What about the pKd (Protein SYK-NC, original PM interactions) of the same substance?
A: The pKd was 6.22.

Q: What about the pKd (Protein TENC1, original PM interactions) of the same substance?
A: The pKd was 5.70.

Q: What about the pKd (Protein VAV1, original PM interactions) of the same substance?
A: The pKd was 5.70.

Q: What about the pKd (protein ABL2) of the same substance?
A: The pKd was 6.82.

Q: And the pKd (protein CRK)?
A: The pKd was 6.59.

Q: And the pKd (protein CRKL)?
A: Its pKd is 6.36.

Q: And the pKd (protein HCK)?
A: Its pKd is 6.24.

Q: What about the pKd (protein NCK1) of the same substance?
A: The pKd was 6.68.

Q: What about the pKd (protein NCK2) of the same substance?
A: The pKd was 6.26.

Q: What about the pKd (protein PIK3R1-N) of the same substance?
A: The pKd was 6.28.

Q: And the pKd (protein PIK3R1-NC)?
A: Its pKd is 7.26.

Q: And the pKd (protein PIK3R2-C)?
A: Its pKd is 6.03.

Q: And the pKd (protein PIK3R2-N)?
A: The pKd was 6.92.

Q: And the pKd (protein PIK3R2-NC)?
A: The pKd was 7.10.

Q: And the pKd (protein PIK3R3-C)?
A: The pKd was 6.30.

Q: And the pKd (protein PIK3R3-N)?
A: The pKd was 6.30.

Q: What about the pKd (protein PIK3R3-NC) of the same substance?
A: Its pKd is 7.85.

Q: What about the pKd (protein PLCG1-C) of the same substance?
A: The pKd was 6.16.

Q: And the pKd (protein PLCG1-NC)?
A: The pKd was 6.14.

Q: What about the pKd (protein PTK6) of the same substance?
A: Its pKd is 6.36.

Q: What about the pKd (protein RASA1-N) of the same substance?
A: The pKd was 6.04.

Q: And the pKd (protein SHC1)?
A: The pKd was 6.22.

Q: What about the pKd (protein SHC3) of the same substance?
A: The pKd was 6.19.

Q: What about the pKd (protein SYK-NC) of the same substance?
A: The pKd was 6.22.

Q: And the pKd (protein TXK)?
A: Its pKd is 5.78.

Q: And the pKd (protein VAV2)?
A: Its pKd is 6.52.

Q: What about the pKd (protein VAV3) of the same substance?
A: The pKd was 5.81.

Q: What about the pKd (protein ZAP70-C) of the same substance?
A: The pKd was 5.84.

Q: With “PKQEpYLNPVEENd [ErbB4 pY1162, N-terminally rhodamine-labeled 13-mer phosphopeptide]” as the substance, how does the pKd (protein ABL2, all original PM interactions) read?
A: Its pKd is 6.49.

Q: What about the pKd (protein ABL2) of the same substance?
A: Its pKd is 6.55.

Q: And the pKd (protein CRK, all original PM interactions)?
A: Its pKd is 5.70.

Q: And the pKd (protein CRKL, all original PM interactions)?
A: Its pKd is 5.70.

Q: What about the pKd (protein NCK2, all original PM interactions) of the same substance?
A: Its pKd is 5.70.

Q: And the pKd (protein PIK3R2-N, all original PM interactions)?
A: Its pKd is 5.70.

Q: And the pKd (protein PIK3R3-NC, all original PM interactions)?
A: The pKd was 5.70.

Q: What about the pKd (protein PLCG1-C, all original PM interactions) of the same substance?
A: The pKd was 5.70.

Q: What about the pKd (protein PLCG1-NC, all original PM interactions) of the same substance?
A: Its pKd is 5.70.

Q: And the pKd (protein PTPN11-N, all original PM interactions)?
A: The pKd was 5.70.

Q: What about the pKd (protein RASA1-N, all original PM interactions) of the same substance?
A: The pKd was 5.70.

Q: And the pKd (protein RASA1-N)?
A: The pKd was 6.01.

Q: And the pKd (protein SLA, all original PM interactions)?
A: Its pKd is 5.70.

Q: And the pKd (protein SYK-NC, all original PM interactions)?
A: The pKd was 5.70.

Q: And the pKd (protein VAV1, all original PM interactions)?
A: Its pKd is 5.70.

Q: And the pKd (protein VAV2, all original PM interactions)?
A: Its pKd is 5.70.

Q: And the pKd (protein VAV2)?
A: The pKd was 7.00.

Q: What about the pKd (protein VAV3, all original PM interactions) of the same substance?
A: The pKd was 5.70.
